Test results as given in patent US6664406B1, “Nervonic acid derivatives, their preparation and use” (Croda International PLC, priority 1999, dated 2003).
Like-named read-outs stand apart in the source and are kept apart here.

Columns and labels:
[1] = rats and mice, up to 10 g/kg; reported in WO 96/34846; cited from earlier work
[2] = test system: chronic EAE in the Biozzi mouse model; assay: NA:NA and NA:GLA in ethyl oleate in chronic relapsing EAE (Example 7); type: in vivo; conditions: for AG: Percentage of mice in the group / CFT: Percentage of mice in the group / CHLP: Percentage of mice in the group / HLH: Percentage of mice in the group / PFT: Percentage of mice in the group / PHLP: Percentage of mice in the group: ethyl oleate vehicle
Experimental: (§1) Male Biozzi mice weighing 30-35 g were injected in each flank with 0.15 mL of an emulsion containing lyophilised mouse spinal cord, phosphate buffered saline and incomplete Freund's adjuvant supplemented with Mycobacterium butyricum and Mycobacterium tuberculosis H37Ra.
(§2) 1: Partial Flaccid Tail (PFT), 2: Complete Flaccid Tail (CFT), 3: Impaired Righting Reflex (IRR), 4: Ataxic Gait (AG), 5: Hind Limb Hypotonia (HLH), 6: Partial Hind Limb Paralysis (PHLP), 7: Complete Hind Limb Paralysis (CHLP), 8: Moribund (M), 9: Dead (D).

[3] = test system: CREAE in the Biozzi mouse model; assay: NA:NA and NA:GLA in Miglyol 810 in CREAE (Example 8); type: in vivo
Experimental: as §1, §2
Therefore, Miglyol appeared well-suited for use as a vehicle in subsequent studies to determine the efficacy of compounds in CREAE. Therefore, using Miglyol 810 as the new vehicle, prophylactic effects of NA:NA and NA:GLA were re-assessed on CREAE in the Biozzi mouse model (90% dilution, 1000 mg/kg/day, up to 43 days PI).

[4] = Nervonic acid composition of total polar lipid from rat brain (Example 9); type: in vivo; conditions: after Example 6 treatments; NA:GLA at both low and high doses
Experimental: (§3) Upon termination of certain biological evaluations, rat or mice brains were extracted and the fatty acid composition of total polar lipids from rat/mouse brain was determined.
(§4) Biological material was sent for analysis to Dr J. Hendersen at the University of Stirling, Institute of Aquaculture, Scotland. Analyses were carried out on two batches of experiments (detailed respectively in Example 6 and Example 7).

[5] = Nervonic acid composition of total polar lipid from mouse brain (Example 9); type: in vivo; conditions: CREAE-inoculated mice
Experimental: as §3, §4

[6] = Miscibility / physical state of oral compositions in vehicle; type: physicochemical; conditions: room temperature (about 20° C.)
Description: Formulations of the present invention suitable for oral administration may be in the form of discrete units such as capsules, cachets, tablets or lozenges, each containing a predetermined amount of the active ingredient; in the form of a powder or granules; in the form of a solution or a suspension in an aqueous liquid or non-aqueous liquid; or in the form of an oil-in-water emulsion or a water-in-oil emulsion. The active ingredient may also be in the form of a bolus, electuary or paste. For such formulations, a range of dilutions of the active ingredient in the vehicle is suitable, such as from 1% to 99%, preferably 5% to 50% and more preferably 10% to 25% dilution. Depending upon the level of dilution, the formulation will be either a liquid at room temperature (in the region of about 20° C.) or a low-melting solid.

[7] = test system: neurological EAE in the Lewis rat; conditions: for Number diseased/total: 5 days prior to inoculation and 25 days PI
Experimental: Male Lewis rats, weighing 230-280 g on the day of inoculation, were injected in each rear footpad with 0.1 ml of an emulsion containing equal parts of guinea pig spinal cord; phosphate buffered saline (PBS) and incomplete Freund's adjuvant supplemented with 10 mg/ml Mycobacterium tuberculosis H37Ra.
Animals were weighed daily and assessed for neurological disease from day 7 post-inoculation (PI). Rats displaying symptoms of EAE were scored as follows: 1: flaccid tail (FT), 2: hind limb hypotonia (HLH), 3: partial hind limb paralysis (PHLP), 4: complete hind limb paralysis (CHLP), 5: moribund or dead.
NA:GLA (neat oil) was orally administered 5 days prior to inoculation and continued for 25 days PI, at a dose of 750 mg/kg body weight/day and 1000 mg/kg body weight/day. NA:DHA (neat oil) was given by an identical dosing regime at a dose of 500 mg/kg body weight/day. Control-sensitised animals received PBS vehicle or were undosed. Undosed, vehicle and low dose NA:GLA treatments contained 7 animals. Four rats received high dose NA:GLA and 3 rats were dosed with NA:DHA.

[8] = Biozzi mouse, 10% w/w in ethyl oleate, 1000 mg/kg body weight/day
[9] = acute phase, Biozzi mouse, 10% w/w in ethyl oleate, 1000 mg/kg body weight/day
[10] = relapse phase, Biozzi mouse, 10% w/w in ethyl oleate, 1000 mg/kg body weight/day
[11] = acute phase, Miglyol 810 vehicle, 1000 mg/kg/day
[12] = acute phase, Miglyol 810 vehicle, n=12, NA:GLA n=11
[13] = relapse phase, Miglyol 810 vehicle, 1000 mg/kg/day
[14] = relapse phase, Miglyol 810 vehicle, NA:GLA n=9, NA:NA n=11

CCCCC/C=C\C/C=C\C/C=C\CCCCC(=O)OCCCOC(=O)CCCC/C=C\C/C=C\C/C=C\CCCCC [GLA:GLA, 1,3-Di(z,z,z-6,9,12-Octadecatrienoyloxy)propane]
evidence of diarrhea (absence of toxicity) [1]: without evidence of diarrhea

CCCCC/C=C\C/C=C\C/C=C\CCCCC(=O)OCCCOC(=O)CCCCCCCCCCCCC/C=C\CCCCCCCC [NA:GLA, 1-(z-15-tetracosenoyloxy)-3-(z,z,z-6,9,12-octadecatrienoyloxy)propane]
Acute and relapse symptoms (mean neurological scores) [2, 8]: markedly reduced
onset of relapse [2, 8]: delayed, but not significantly
Mean day of symptom loss [2, 9]: 30.0 ± 1.4 days
Mean day of symptom onset [2, 9]: 21.7 ± 4.2 days
Mean duration of symptoms [2, 9]: 5.7 ± 1.5 days
Number of dead mice [2, 9]: 0/10
No. of diseased mice ([2]; acute phase, Biozzi mouse, […], oral 1000 mg/kg body weight/day, 5 days prior to inoculation and 43 days PI, n=10): 3/10
AG: Percentage of mice in the group ([2]; acute phase, n=10): 20%
CFT: Percentage of mice in the group ([2]; acute phase, n=10): 20%
CHLP: Percentage of mice in the group ([2]; acute phase, n=10): 20%
HLH: Percentage of mice in the group ([2]; acute phase, n=10): 30%
PFT: Percentage of mice in the group ([2]; acute phase, n=10): 20%
PHLP: Percentage of mice in the group ([2]; acute phase, n=10): 20%
Mean day of symptom onset [2, 10]: 42.0 ± 1.0 days
No. of diseased mice [2, 10]: 3/10
Number of dead mice [2, 10]: 0/10
AG: Percentage of mice in the group ([2]; relapse phase, n=10): 10%
CFT: Percentage of mice in the group ([2]; relapse phase, n=10): 10%
CHLP: Percentage of mice in the group ([2]; relapse phase, n=10): 0%
HLH: Percentage of mice in the group ([2]; relapse phase, n=10): 30%
PFT: Percentage of mice in the group ([2]; relapse phase, n=10): 10%
PHLP: Percentage of mice in the group ([2]; relapse phase, n=10): 0%
effect on the neurological course of CREAE ([3]; Biozzi mouse, Miglyol 810 vehicle, 1000 mg/kg/day): clearly reduced the intensity of neurological deficits during both acute and relapsing phases
No. of diseased mice ([3]; acute phase, Biozzi mouse, Miglyol 810 vehicle (90% dilution), 1000 mg/kg/day, up to 43 days PI): 10/11
Mean day of symptom loss [3, 11]: 25.9 ± 2.0 days
Mean day of symptom onset [3, 11]: 17.9 ± 2.6 days
Mean duration of symptoms [3, 11]: 6.9 ± 3.0 days
Number of dead mice [3, 11]: 1/11
AG: Percentage of mice in the group [3, 12]: 73%
CFT: Percentage of mice in the group [3, 12]: 82%
CHLP: Percentage of mice in the group [3, 12]: 36%
D (dead): Percentage of mice in the group [3, 12]: 9%
HLH: Percentage of mice in the group [3, 12]: 73%
IRR: Percentage of mice in the group [3, 12]: 82%
M (moribund): Percentage of mice in the group [3, 12]: 0%
PFT: Percentage of mice in the group [3, 12]: 91%
PHLP: Percentage of mice in the group [3, 12]: 46%
D (dead): Percentage of mice in the group ([3]; mouse, in vivo): 22%
M (moribund): Percentage of mice in the group ([3]; mouse, in vivo): 11%
Mean day of symptom loss [3, 13]: 39.8 ± 5.0 days
Mean day of symptom onset [3, 13]: 33.1 ± 4.9 days
Mean duration of symptoms [3, 13]: 7.0 ± 4.2 days
No. of diseased mice [3, 13]: 8/9
Number of dead mice [3, 13]: 3/9
AG: Percentage of mice in the group [3, 14]: 56%
CFT: Percentage of mice in the group [3, 14]: 67%
CHLP: Percentage of mice in the group [3, 14]: 44%
HLH: Percentage of mice in the group [3, 14]: 56%
IRR: Percentage of mice in the group [3, 14]: 67%
PFT: Percentage of mice in the group [3, 14]: 89%
PHLP: Percentage of mice in the group [3, 14]: 56%
NA levels in rat brain lipids compared to normal, undosed and vehicle treated animals [4]: marked increase of NA levels
NA levels in mouse brain lipids compared to undosed and vehicle [5]: enhancement of the NA levels in brain lipids
miscibility of compositions with vehicle [6]: miscible in all proportions at room temperature
CHLP: Number of animals showing symptoms/total ([7]; 750 mg/kg/day): 3/7
FT: Number of animals showing symptoms/total ([7]; 750 mg/kg/day): 7/7
HLH: Number of animals showing symptoms/total ([7]; 750 mg/kg/day): 7/7
PHLP: Number of animals showing symptoms/total ([7]; 750 mg/kg/day): 4/7
CHLP: Number of animals showing symptoms/total ([7]; 1000 mg/kg/day): 1/4
FT: Number of animals showing symptoms/total ([7]; 1000 mg/kg/day): 4/4
HLH: Number of animals showing symptoms/total ([7]; 1000 mg/kg/day): 4/4
PHLP: Number of animals showing symptoms/total ([7]; 1000 mg/kg/day): 2/4
effect on onset, incidence and severity of disease ([7]; 750 and 1000 mg/Kg body weight/day, compared to control groups): delayed the onset and clearly reduced the incidence and severity of disease
animals that experienced CHLP ([7]; high dose): 25%
animals that experienced PHLP ([7]; high dose): 50%
mean cumulative clinical scores ([7]; low and high dose (750 and 1000 mg/kg/day)): consistently lower than control values
animals that experienced CHLP ([7]; low dose): 43%
animals that experienced PHLP ([7]; low dose): 57%
Mean day of final symptom loss (±SD) ([7]; neat oil oral 750 mg/kg/day): 19.0 ± 0.8 days
Mean day of symptom onset (±SD) ([7]; neat oil oral 750 mg/kg/day): 11.3 ± 0.8 days
Number of dead/total ([7]; neat oil oral 750 mg/kg/day): 0/7
Number diseased/total ([7]; neat oil oral 750 mg/kg/day): 7/7
Mean day of final symptom loss (±SD) ([7]; neat oil oral 1000 mg/kg/day): 18.8 ± 1.3 days
Mean day of symptom onset (±SD) ([7]; neat oil oral 1000 mg/kg/day): 11.3 ± 0.5 days
Number of dead/total ([7]; neat oil oral 1000 mg/kg/day): 0/4
Number diseased/total ([7]; neat oil oral 1000 mg/kg/day): 4/4
